Calls of active or inactive are those of the source. The rule behind the calls is not given here.
What was measured:
[1] = target: T1, Estrogen receptor (Homo sapiens) (UniProt P03372); assay: Antagonist activity at human ERalpha receptor expressed in human HeLa cells assessed as inhibition of DHT-induced response after 40 hrs by luciferase/beta-galactosidase-based reporter gene assay; assay type: functional, cell-based
T1 sequence (whole entry): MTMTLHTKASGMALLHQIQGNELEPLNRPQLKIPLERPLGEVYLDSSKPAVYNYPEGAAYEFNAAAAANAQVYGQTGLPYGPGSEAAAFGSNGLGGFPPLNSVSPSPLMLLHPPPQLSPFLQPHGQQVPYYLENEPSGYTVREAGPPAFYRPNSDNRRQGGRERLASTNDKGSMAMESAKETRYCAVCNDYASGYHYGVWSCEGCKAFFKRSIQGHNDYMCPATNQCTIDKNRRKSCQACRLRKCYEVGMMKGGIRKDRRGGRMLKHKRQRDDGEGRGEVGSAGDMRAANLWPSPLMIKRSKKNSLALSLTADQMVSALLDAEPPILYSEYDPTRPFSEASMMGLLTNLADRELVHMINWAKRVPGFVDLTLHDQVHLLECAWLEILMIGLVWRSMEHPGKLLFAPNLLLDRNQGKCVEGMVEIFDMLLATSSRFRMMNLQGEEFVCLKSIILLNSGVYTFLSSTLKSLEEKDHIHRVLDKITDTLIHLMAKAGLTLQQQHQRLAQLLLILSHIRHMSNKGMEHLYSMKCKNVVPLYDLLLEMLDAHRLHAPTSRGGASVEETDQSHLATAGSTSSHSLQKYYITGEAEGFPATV

[2] = target: T2, Androgen receptor (Homo sapiens) (UniProt P10275); assay: Agonist activity at human androgen receptor expressed in human HeLa cells assessed as DHT-induced response after 40 hrs by luciferase/beta-galactosidase-based reporter gene assay; assay type: functional, cell-based
T2 sequence (whole entry): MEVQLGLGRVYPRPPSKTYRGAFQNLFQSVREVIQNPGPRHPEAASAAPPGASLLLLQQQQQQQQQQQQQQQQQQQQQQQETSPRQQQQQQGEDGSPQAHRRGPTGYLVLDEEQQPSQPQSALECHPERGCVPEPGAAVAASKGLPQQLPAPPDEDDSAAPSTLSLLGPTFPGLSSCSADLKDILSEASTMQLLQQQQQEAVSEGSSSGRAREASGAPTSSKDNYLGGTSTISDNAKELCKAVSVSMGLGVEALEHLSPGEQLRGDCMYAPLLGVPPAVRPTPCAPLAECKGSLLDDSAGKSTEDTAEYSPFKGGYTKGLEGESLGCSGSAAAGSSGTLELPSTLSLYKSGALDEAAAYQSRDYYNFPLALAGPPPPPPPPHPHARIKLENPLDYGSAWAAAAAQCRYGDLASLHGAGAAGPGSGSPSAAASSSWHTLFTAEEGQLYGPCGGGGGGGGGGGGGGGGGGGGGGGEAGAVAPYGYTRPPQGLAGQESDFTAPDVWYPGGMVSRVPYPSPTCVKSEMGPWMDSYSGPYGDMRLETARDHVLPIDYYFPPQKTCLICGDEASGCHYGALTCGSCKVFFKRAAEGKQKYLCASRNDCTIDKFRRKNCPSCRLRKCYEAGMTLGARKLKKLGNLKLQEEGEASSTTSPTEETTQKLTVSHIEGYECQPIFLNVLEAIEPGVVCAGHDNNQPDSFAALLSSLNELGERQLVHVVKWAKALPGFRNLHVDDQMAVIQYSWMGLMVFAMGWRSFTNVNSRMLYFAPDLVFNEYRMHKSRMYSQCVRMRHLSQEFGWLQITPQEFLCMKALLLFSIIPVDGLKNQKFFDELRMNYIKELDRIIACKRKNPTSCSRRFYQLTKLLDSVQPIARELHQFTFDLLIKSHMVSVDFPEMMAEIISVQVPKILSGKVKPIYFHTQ

[3] = target: T1, Estrogen receptor (Homo sapiens); assay: Agonist activity at human Estrogen receptor ERalpha expressed in human HeLa cells assessed as DHT-induced response after 40 hrs by luciferase/beta-galactosidase-based reporter gene assay; assay type: functional, cell-based
[4] = target: T3, 17-beta-hydroxysteroid dehydrogenase type 3 (Homo sapiens, UniProt P37058)
T3 sequence (P37058 whole entry): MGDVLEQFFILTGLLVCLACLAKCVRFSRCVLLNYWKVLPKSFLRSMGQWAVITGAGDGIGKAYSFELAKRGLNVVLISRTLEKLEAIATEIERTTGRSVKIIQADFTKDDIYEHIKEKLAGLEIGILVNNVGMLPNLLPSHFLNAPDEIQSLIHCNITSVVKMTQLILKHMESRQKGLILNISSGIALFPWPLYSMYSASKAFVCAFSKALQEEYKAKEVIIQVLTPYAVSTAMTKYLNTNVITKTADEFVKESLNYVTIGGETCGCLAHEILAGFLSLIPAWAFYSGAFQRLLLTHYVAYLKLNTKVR
Description: Inhibition of human recombinant 17-beta-HSD3 expressed in human HeLa cells using androstenedione as substrate preincubated for 30 mins prior substrate addition measured after 120 mins by spectrophotometry

[5] = target: T4, 17-beta-hydroxysteroid dehydrogenase type 1 (Homo sapiens) (UniProt P14061); assay: Inhibition of human recombinant 17-beta-HSD1 expressed in human HeLa cells using estrone as substrate preincubated for 30 mins prior substrate addition measured after 120 mins by spectrophotometry; assay type: cell-based
T4 sequence (whole entry): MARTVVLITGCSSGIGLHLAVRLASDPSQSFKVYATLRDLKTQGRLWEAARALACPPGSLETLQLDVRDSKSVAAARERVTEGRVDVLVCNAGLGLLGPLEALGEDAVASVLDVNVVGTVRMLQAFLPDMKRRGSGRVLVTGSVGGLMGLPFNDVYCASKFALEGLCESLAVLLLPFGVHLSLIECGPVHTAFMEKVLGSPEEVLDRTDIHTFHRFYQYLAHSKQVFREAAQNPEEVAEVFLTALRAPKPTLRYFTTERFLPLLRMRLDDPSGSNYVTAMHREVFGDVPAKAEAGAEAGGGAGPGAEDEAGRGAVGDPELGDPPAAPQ

[6] = target: T5, Glucocorticoid receptor (Homo sapiens) (UniProt P04150); assay: Antagonist activity at human GR receptor expressed in human HeLa cells assessed as inhibition of DHT-induced response after 40 hrs by luciferase/beta-galactosidase-based reporter gene assay; assay type: functional, cell-based
T5 sequence (whole entry): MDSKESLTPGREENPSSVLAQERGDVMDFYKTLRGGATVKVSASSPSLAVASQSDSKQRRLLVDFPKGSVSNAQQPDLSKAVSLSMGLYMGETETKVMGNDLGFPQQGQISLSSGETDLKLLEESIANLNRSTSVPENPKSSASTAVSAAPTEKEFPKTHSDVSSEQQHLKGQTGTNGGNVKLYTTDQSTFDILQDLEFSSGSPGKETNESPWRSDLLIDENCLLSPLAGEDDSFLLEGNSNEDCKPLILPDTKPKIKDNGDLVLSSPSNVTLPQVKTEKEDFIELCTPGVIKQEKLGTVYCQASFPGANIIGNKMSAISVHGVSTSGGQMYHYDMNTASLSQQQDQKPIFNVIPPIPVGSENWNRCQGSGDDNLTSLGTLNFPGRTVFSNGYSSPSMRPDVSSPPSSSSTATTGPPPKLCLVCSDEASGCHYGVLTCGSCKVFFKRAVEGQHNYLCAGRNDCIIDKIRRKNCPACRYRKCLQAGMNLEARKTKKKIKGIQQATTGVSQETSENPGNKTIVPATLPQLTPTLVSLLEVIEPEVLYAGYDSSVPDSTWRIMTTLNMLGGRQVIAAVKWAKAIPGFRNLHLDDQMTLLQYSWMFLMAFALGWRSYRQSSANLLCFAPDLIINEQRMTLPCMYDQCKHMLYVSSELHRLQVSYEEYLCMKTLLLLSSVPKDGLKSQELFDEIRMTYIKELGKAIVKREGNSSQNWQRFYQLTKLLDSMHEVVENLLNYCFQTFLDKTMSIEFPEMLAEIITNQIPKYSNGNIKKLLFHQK

[7] = target: T5, Glucocorticoid receptor (Homo sapiens); assay: Agonist activity at human Glucocorticoid receptor expressed in human HeLa cells assessed as DHT-induced response after 40 hrs by luciferase/beta-galactosidase-based reporter gene assay; assay type: functional, cell-based
[8] = target: T6, 17-beta-hydroxysteroid dehydrogenase type 2 (Homo sapiens) (UniProt P37059); assay: Inhibition of human recombinant 17-beta-HSD2 expressed in human HeLa cells using estradiol as substrate preincubated for 30 mins prior substrate addition measured after 120 mins by spectrophotometry; assay type: cell-based
T6 sequence (whole entry): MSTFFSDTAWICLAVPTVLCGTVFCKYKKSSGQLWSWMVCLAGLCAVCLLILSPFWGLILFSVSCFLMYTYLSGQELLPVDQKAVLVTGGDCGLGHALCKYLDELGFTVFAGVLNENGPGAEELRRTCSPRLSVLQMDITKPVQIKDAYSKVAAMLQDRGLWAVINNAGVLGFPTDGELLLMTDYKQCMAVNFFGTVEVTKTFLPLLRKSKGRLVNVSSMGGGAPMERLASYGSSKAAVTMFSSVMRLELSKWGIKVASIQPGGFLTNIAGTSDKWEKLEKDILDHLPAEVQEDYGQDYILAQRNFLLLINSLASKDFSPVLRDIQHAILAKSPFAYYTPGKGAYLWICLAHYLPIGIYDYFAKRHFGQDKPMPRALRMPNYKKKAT

[9] = target: T2, Androgen receptor (Homo sapiens); assay: Antagonist activity at human androgen receptor expressed in human HeLa cells assessed as inhibition of DHT-induced response after 40 hrs by luciferase/beta-galactosidase-based reporter gene assay; assay type: functional, cell-based

COc1ccc(N2C(=O)/C(=C/c3ccc(O)cn3)OC2=S)cc1
Activity [1]: inactive
Activity [2]: inactive
Activity [3]: inactive
IC50 [4]: 90 nM
inhibition [5]: inactive
Activity [6]: inactive
Activity [7]: inactive
inhibition [8]: inactive
Activity [9]: inactive

CN(C)c1ccc(N2C(=O)O/C(=C\c3ccc(O)c(Br)c3)C2=O)cc1
Activity [1]: inactive
Activity [2]: inactive
Activity [3]: inactive
IC50 [4]: 25 nM
inhibition [5]: inactive
Activity [6]: inactive
Activity [7]: inactive
inhibition [8]: inactive
Activity [9]: inactive

CS(=O)(=O)c1ccc(N2C(=O)O/C(=C\c3ccc(O)c(Br)c3)C2=O)cc1
Activity [1]: inactive
Activity [2]: inactive
Activity [3]: inactive
IC50 [4]: 900 nM
inhibition [5]: inactive
Activity [6]: inactive
Activity [7]: inactive
inhibition [8]: inactive
Activity [9]: inactive

COc1ccc(N2C(=O)/C(=C/c3cc(F)c(O)c(F)c3)OC2=S)cc1
Activity [1]: inactive
Activity [2]: inactive
Activity [3]: inactive
IC50 [4]: 5 nM
inhibition [5]: inactive
Activity [6]: inactive
Activity [7]: inactive
inhibition [8]: inactive
Activity [9]: inactive

O=C(Nc1ccc(N2C(=O)O/C(=C\c3ccc(O)c(Br)c3)C2=O)cc1)C1CCCCC1
Activity [1]: inactive
Activity [2]: inactive
Activity [3]: inactive
IC50 [4]: 21 nM
inhibition [5]: inactive
Activity [6]: inactive
Activity [7]: inactive
inhibition [8]: inactive
Activity [9]: inactive

COCCN1C(=O)/C(=C/c2ccc(O)c(Br)c2)SC1=S
Activity [1]: inactive
Activity [2]: inactive
Activity [3]: inactive
IC50 [4]: 190 nM
inhibition [5]: inactive
Activity [6]: inactive
Activity [7]: inactive
inhibition [8]: inactive
Activity [9]: inactive

COc1ccc(N2C(=O)/C(=C/c3ccc(O)c(Cl)c3)OC2=S)cc1
Activity [1]: inactive
Activity [2]: inactive
Activity [3]: inactive
IC50 [4]: 4 nM
inhibition [5]: inactive
Activity [6]: inactive
Activity [7]: inactive
inhibition [8]: inactive
Activity [9]: inactive

O=C(c1ccc(N2C(=O)O/C(=C\c3ccc(O)c(Br)c3)C2=O)cc1)N1CCOCC1
Activity [1]: inactive
Activity [2]: inactive
Activity [3]: inactive
IC50 [4]: 300 nM
inhibition [5]: inactive
Activity [6]: inactive
Activity [7]: inactive
inhibition [8]: inactive
Activity [9]: inactive

COc1ccc(N2C(=O)O/C(=C\c3ccc(O)c(Br)c3)C2=O)cn1
Activity [1]: inactive
Activity [2]: inactive
Activity [3]: inactive
IC50 [4]: 4 nM
inhibition [5]: inactive
Activity [6]: inactive
Activity [7]: inactive
inhibition [8]: inactive
Activity [9]: inactive

O=C1/C(=C/c2ccc(O)c(Br)c2)SC(=S)N1C1CCOCC1
Activity [1]: inactive
Activity [2]: inactive
Activity [3]: inactive
IC50 [4]: 75 nM
inhibition [5]: inactive
Activity [6]: inactive
Activity [7]: inactive
inhibition [8]: inactive
Activity [9]: inactive

O=C1/C(=C/c2ccc(O)c(Br)c2)SC(=S)N1C1CCCCC1
Activity [1]: inactive
Activity [2]: inactive
Activity [3]: inactive
IC50 [4]: 3 nM
inhibition [5]: inactive
Activity [6]: inactive
Activity [7]: inactive
inhibition [8]: inactive
Activity [9]: inactive
